Assay results from ChEMBL document CHEMBL1144831, “Pyrano-[2,3b]-pyridines as potassium channel antagonists” (Bioorg Med Chem Lett, 2008).
In brackets after ≈: the same amount, converted by molar mass.

Tests used:
[1] = target: T1, Potassium voltage-gated channel subfamily A member 5 (Homo sapiens, UniProt P22460); assay: Inhibition of human Kv1.5 channel expressed in mouse L929 cells assessed as blockade of ultra rapidly activating potassium current by voltage clamp technique; format: cell-based
T1 sequence (P22460 whole entry): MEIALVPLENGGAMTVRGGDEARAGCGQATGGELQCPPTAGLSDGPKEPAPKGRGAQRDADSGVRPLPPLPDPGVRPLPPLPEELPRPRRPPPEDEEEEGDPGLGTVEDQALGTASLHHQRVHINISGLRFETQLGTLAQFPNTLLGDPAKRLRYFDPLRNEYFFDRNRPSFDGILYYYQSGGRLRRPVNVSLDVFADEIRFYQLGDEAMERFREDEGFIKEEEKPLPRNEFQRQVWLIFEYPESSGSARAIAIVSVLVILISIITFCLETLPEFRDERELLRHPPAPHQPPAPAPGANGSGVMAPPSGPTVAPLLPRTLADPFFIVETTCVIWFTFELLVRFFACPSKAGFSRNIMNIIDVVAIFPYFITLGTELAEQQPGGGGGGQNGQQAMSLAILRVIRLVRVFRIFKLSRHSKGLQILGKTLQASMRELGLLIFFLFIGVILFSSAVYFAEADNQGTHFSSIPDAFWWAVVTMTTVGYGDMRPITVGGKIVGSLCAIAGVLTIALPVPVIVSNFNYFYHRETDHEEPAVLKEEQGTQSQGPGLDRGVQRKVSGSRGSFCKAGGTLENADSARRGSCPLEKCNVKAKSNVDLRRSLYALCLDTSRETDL

[2] = Aqueous solubility at pH 6.5; format: physicochemical
[3] = target: T1, Potassium voltage-gated channel subfamily A member 5; assay: Inhibition of human Kv1.5 channel expressed in mouse L929 cells assessed as blockade of ultra rapidly activating potassium current at 1 uM by voltage clamp technique; format: cell-based

Row | Compound | IC50 [1] | solubility [2] | inhibition [3]
1 | CCc1ccc(S(=O)(=O)N[C@H]2CCCc3ccc(N(Cc4cccc(C)n4)C(=O)CCc4ccccc4)cc32)cc1 | 0.046 µM |  | 
2 | CCc1ccc(S(=O)(=O)N[C@@H]2c3cc(NC(=O)c4cccc(OC)c4)ccc3C[C@H]2O)cc1 | 0.05 µM |  | 
3 | CCc1ccc(S(=O)(=O)N[C@@H]2c3cc(C(=O)N(CC)Cc4ccccc4F)ccc3OC(C)(C)[C@H]2O)cc1 (racemic) |  | 10 µg/mL (≈ 18.5 µM) | 
4 | CCc1ccc(S(=O)(=O)N[C@@H]2c3cc(C(=O)N(CC)Cc4ccccc4OC)cnc3OC(C)(C)[C@H]2O)cc1 (racemic) | 2.09 µM |  | 35%
5 | CCc1ccc(S(=O)(=O)N[C@@H]2c3cc(C(=O)N(CC)Cc4ccc(C)cc4)cnc3OC(C)(C)[C@H]2O)cc1 (racemic) | 1.56 µM |  | 15%
6 | CCc1ccc(S(=O)(=O)N[C@@H]2c3cc(C(=O)N(CC)c4cc(F)ccc4F)cnc3OC(C)(C)[C@H]2O)cc1 (racemic) | 0.912 µM |  | 52%
7 | CCc1ccc(S(=O)(=O)N[C@@H]2c3cc(C(=O)N(CC)Cc4c(F)cccc4Cl)cnc3OC(C)(C)[C@H]2O)cc1 (racemic) | 0.615 µM |  | 54%
8 | CCc1ccc(S(=O)(=O)N[C@@H]2c3cc(C(=O)Nc4ccc(Br)cc4)ccc3OC(C)(C)[C@H]2O)cc1 (racemic) | 0.316 µM |  | 73%
9 | CCc1ccc(S(=O)(=O)N[C@@H]2c3cc(C(=O)N(CC)Cc4ccc(OC)cc4)cnc3OC(C)(C)[C@H]2O)cc1 (racemic) | 0.605 µM |  | 70%
10 | CCc1ccc(S(=O)(=O)N[C@@H]2c3cc(C(=O)N4CCC[C@H]4CNc4c(C)cccc4C)ccc3OC(C)(C)[C@H]2O)cc1 (racemic) | 0.06 µM |  | 
11 | CCc1ccc(S(=O)(=O)N[C@@H]2c3cc(C(=O)N(CC)c4ccccc4)cnc3OC(C)(C)[C@H]2O)cc1 (racemic) | 0.378 µM | 108 µg/mL (≈ 212 µM) | 89%
12 | CCc1ccc(S(=O)(=O)N[C@@H]2c3cc(C(=O)N(CC)c4cccc(Cl)c4)cnc3OC(C)(C)[C@H]2O)cc1 (racemic) | 0.649 µM |  | 64%
13 | CCc1ccc(S(=O)(=O)N[C@@H]2c3cc(C(=O)N(CC)c4cccc(C)c4)cnc3OC(C)(C)[C@H]2O)cc1 (racemic) | 0.776 µM |  | 58%
14 | CCc1ccc(S(=O)(=O)N[C@@H]2c3cc(C(=O)N(C)Cc4ccccc4)cnc3OC(C)(C)[C@H]2O)cc1 (racemic) |  |  | 12%
15 | CCc1ccc(S(=O)(=O)N[C@@H]2c3cc(C(=O)N(C)c4ccccc4)ccc3OC(C)(C)[C@H]2O)cc1 (racemic) |  |  | 87%
16 | CCc1ccc(S(=O)(=O)N[C@@H]2c3cc(C(=O)N(C)c4ccccc4)cnc3OC(C)(C)[C@H]2O)cc1 (racemic) |  |  | 12%
17 | CCc1ccc(S(=O)(=O)N[C@@H]2c3cc(C(=O)N(CC)Cc4cccc(OC)c4)cnc3OC(C)(C)[C@H]2O)cc1 (racemic) |  |  | 23%
18 | CCc1ccc(S(=O)(=O)N[C@@H]2c3cc(C(=O)N(CC)Cc4ccccc4)cnc3OC(C)(C)[C@H]2O)cc1 (racemic) |  |  | 20%
19 | CCc1ccc(S(=O)(=O)N[C@@H]2c3cc(C(=O)N(CC)c4ccc(OC)cc4)cnc3OC(C)(C)[C@H]2O)cc1 (racemic) |  |  | 22%
20 | CCc1ccc(S(=O)(=O)N[C@@H]2c3cc(C(=O)N4CCC[C@H]4CNc4c(C)cccc4C)cnc3OC(C)(C)[C@H]2O)cc1 (racemic) |  |  | 15%
21 | CCc1ccc(S(=O)(=O)N[C@@H]2c3cc(C(=O)N4CCN=C4c4ccccc4)cnc3OC(C)(C)[C@H]2O)cc1 (racemic) |  |  | 2%
22 | CCc1ccc(S(=O)(=O)N[C@@H]2c3cc(C(=O)N4CCc5ccccc54)cnc3OC(C)(C)[C@H]2O)cc1 (racemic) |  |  | 30%
23 | CCc1ccc(S(=O)(=O)N[C@@H]2c3cc(C(=O)NCc4ccccc4)cnc3OC(C)(C)[C@H]2O)cc1 (racemic) |  |  | 17%
24 | CCc1ccc(S(=O)(=O)N[C@@H]2c3cc(C(=O)NCc4ccccc4F)cnc3OC(C)(C)[C@H]2O)cc1 (racemic) |  |  | 4%
25 | CCc1ccc(S(=O)(=O)N[C@@H]2c3cc(C(=O)Nc4cc(NC(C)=O)n[nH]4)cnc3OC(C)(C)[C@H]2O)cc1 (racemic) |  |  | 31%
26 | CCc1ccc(S(=O)(=O)N[C@@H]2c3cc(C(=O)Nc4ccc(Br)cc4)cnc3OC(C)(C)[C@H]2O)cc1 (racemic) |  |  | 8%
27 | CCc1ccc(S(=O)(=O)N[C@@H]2c3cc(C(=O)Nc4nnc(C(F)(F)F)s4)cnc3OC(C)(C)[C@H]2O)cc1 (racemic) |  |  | 3%
